What was measured:
Botrytis = conditions: applied for 10 at least seconds; cited from earlier work
blueberries = assay: Effect of ethanol on post-harvest mass loss of blueberries; conditions: after just under four days, solvent only, no coating agent, 23-27 °C, humidity 40%-55%
Text: The blueberries were all harvested simultaneously and divided into groups, each of the groups being qualitatively identical to the other groups (i.e., all groups had blueberries of approximately the same average size and quality).
Blueberries were harvested simultaneously and divided into four groups of sixty blueberries each, each of the groups being qualitatively identical (i.e., all groups had blueberries of approximately the same average size and quality). The first group of blueberries was not washed or treated in any way and served as a control group.
To treat the blueberries with the various solvents, the blueberries were placed in bags, and the solvent was poured into the bag. The bag was then sealed and lightly agitated until the entire surface of each blueberry was wet. The blueberries were then removed from the bag and allowed to dry on drying racks. The blueberries were kept under ambient room conditions at a temperature in the range of 23° C.-27° C. and humidity in the range of 40%-55% while they dried and for the entire duration of the time they were tested.

Listeria monocytogenes = conditions: cited from earlier work

CCO [substantially pure ethanol (108), ethanol]
ethanol concentration inhibiting germination (Botrytis): ≥ 30%
average percent mass loss (blueberries): about 19%
ethanol concentration inhibiting (not completely stopping) growth (Listeria monocytogenes): 5%

Source: US20230380435A1, “METHOD FOR PREPARING AND PRESERVING SANITIZED PRODUCTS” (Apeel Technology, Inc., priority 2016, published 2023)
